Reference: PubChem BioAssay AID1963445 (Molecular Pharmacology Branch, DTP, NCI, 2024)
Values joined by “and” are separate entries in the source; they are usually repeats but may differ in a detail not shown here. Identical values can stand only once.

System: MCF7 complex spheroid growth, % test/control
Experiment: Anticancer human tumor MCF7 cell line growth inhibition [Asc];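 note: spheroids exposed to compounds for 7 days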;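 for viability, T/C: 100% = DMSO vehicle control wells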
Settings: for viability, T/C: stronger effect = lower value
Protocol: Multicellular complex tumor spheroid response to apoptosis pathway targeting inhibitors Alrizomadlin, Pelcitoclax, and Dasminapant in combination with a variety of drugs and investigational agents in selected tumor cell lines
The MDM2 inhibitor alrizomadlin, the Bcl-2/Bcl-xL inhibitor pelcitoclax, and the IAPs inhibitor dasminapant were evaluated both individually and in combination with standard of care and investigational anticancer small molecules within a complex spheroid model of solid tumors. . Complex spheroids include a stromal component modeled by human endothelial cells (HUVEC) and fibroblasts modeled by human mesenchymal stem cells (MSCs). The concentration ranges selected for each drug and investigational agent were based upon clinically achievable concentrations if the clinical Cmax of the agent was known.
Compounds. The drugs and investigational agents: alrizomadlin (APG-115; NSC831270), pelcitoclax (APG-1252; NSC835773), dasminapant (APG-1387;NSC834197), TAK-243 (NSC785004), copanlisib (NSC809693), olaparib (NSC753686), talazoparib (NSC767125), cobimetinib (NSC 768068), eltanexor (KPT-8602, NSC 794443), abemaciclib (NSC 768073), sotorasib (NSC818433), adagrasib (NSC 831453), MRTX-1133 (NSC 836407), Iadademestat (ORY1001, NSC 806812), and RMC-4630 (NSC839698), were obtained from the NCI Developmental Therapeutics Program Chemical Repository. The FDA-approved anticancer drug set is available from the Developmental Therapeutics Program at https://dtp.cancer.gov/organization/dscb/obtaining/available plates.htm. […] The stock solutions were prepared in dimethyl sulfoxide (DMSO, Sigma-Aldrich, St. Louis, MO, cat. D2650) at 800-fold the tested concentration and stored at -70 degrees C prior to their use. All drugs and investigational agents were tested over a range starting from a high concentration at or near the clinical Cmax and decreasing in half-log increments. If the clinical Cmax for an agent had not been determined, the highest concentration tested was 10 microM.
The patient-derived cancer (PDC) cell lines include five colon adenocarcinomas: 186277-243-T-J2-PDC, 616215-338-R-J1-PDC, 439559-082-T-J2-PDC, 463943-066-T-J2-PDC, and 519858-162-T-J1-PDC; three pancreatic carcinomas: 323965-272-R-J2-PDC, 521955-158-R6-J3-PDC, and 521955-158-R2-J5-PDC; two uterine sarcomas: 327498-152-R-J2-PDC and 993429-296-R-J1-PDC; two rhabdomyosarcomas: 755483-174-R-J1-PDC and 772245-204-R-J1-PDC; two soft tissue sarcomas: 126254-015-R-J1-PDC and 494315-158-R-J1-PDC; two malignant fibrous histiocytomas: 317291-083-R-J1-PDC and 596521-263-R-J1-PDC; two breast carcinomas: 171881-019-R-J1-PDC and 885512-296-R-J2-PDC; and one ovarian carcinoma: 6556581-035-R-J-PDC were obtained from the NCI PDMR, (https://pdmr.cancer.gov). The established cell lines HSSY-2 synovial sarcoma (RRID:CVCL 8719), SYO-1 synovial sarcoma (RRID:CVCL_7146), MPNST malignant peripheral neural sheath tumor were obtained from the Sloan Kettering Institute. The following established cell lines were purchased from the American Type Culture Collection (ATCC, Manassas, VA), Sor the received from the NCI repository:, PANC-1 pancreatic carcinoma (CRL-1469, RRID:CVCL_0480), OVCAR-5 ovarian carcinoma (RRID:CVCL_1628), OVCAR-8 ovarian carcinoma (RRID:CVCL_1629), , MCF-7 breast carcinoma (CRL-12584, RRID:CVCL_0031), MDA-MB-231 breast carcinoma (CRL-12532, RRID:CVCL_0062), NCI-H1876 small cell lung carcinoma (CRL-5902, RRID:CVCL_1503), NCI-H510A small cell lung carcinoma (HTB-184, RRID:CVCL_1565), NCI-H1417 (CRL-5869, RRID:CVCL_1469), and NCI-H196 small cell lung carcinoma (CRL-5823, RRID:CVCL_1509). Dr. Peter Houghton (Greehey Children's Cancer Research Institute, University of Texas Health Science Center, San Antonio, TX) provided Rh-18 rhabdomyosarcoma (RRID:CVCL_1659). Pooled donor human umbilical vein endothelial cells (HUVEC, Lonza, cat. CC-2519) and human mesenchymal stem cells (hMSC, Lonza, cat. PT-2501) were purchased from Lonza (Walkersville, MD).
Cell Culture. […]

## O=C(c1ccc(F)c(F)c1Nc1ccc(I)cc1F)N1CC(O)([C@@H]2CCCCN2)C1 + CCN1C(C(=O)NC23CCC(C(=O)O)(CC2)CC3)C(c2cccc(Cl)c2F)C2(C(=O)Nc3cc(Cl)ccc32)C12CCCCC2
Curve of first compound, second compound 0.00949 µM
  IC50: > 1 µM
Curve of first compound, second compound 0.03 µM
  IC50: > 1 µM
Curve of first compound, second compound 0.0949 µM
  IC50: < 0.00316 µM
Curve of first compound, second compound 0.3 µM
  IC50: < 0.00316 µM
Curve of first compound, second compound 0.949 µM
  IC50: < 0.00316 µM
Curve of first compound, second compound 3 µM
  IC50: < 0.00316 µM
Second compound 0.00949 µM, first compound 0.00316 µM
  viability, T/C: 104%
Second compound 0.00949 µM, first compound 0.01 µM
  viability, T/C: 101%
Second compound 0.00949 µM, first compound 0.0316 µM
  viability, T/C: 111%
Second compound 0.00949 µM, first compound 0.1 µM
  viability, T/C: 97.2%
Second compound 0.00949 µM, first compound 0.316 µM
  viability, T/C: 94.9%
Second compound 0.00949 µM, first compound 1 µM
  viability, T/C: 100%
Second compound 0.03 µM, first compound 0.00316 µM
  viability, T/C: 105%
Second compound 0.03 µM, first compound 0.01 µM
  viability, T/C: 99.4%
Second compound 0.03 µM, first compound 0.0316 µM
  viability, T/C: 93.9%
Second compound 0.03 µM, first compound 0.1 µM
  viability, T/C: 96.6%
Second compound 0.03 µM, first compound 0.316 µM
  viability, T/C: 81.4%
Second compound 0.03 µM, first compound 1 µM
  viability, T/C: 63.5%
Second compound 0.0949 µM, first compound 0.00316 µM
  viability, T/C: 50.6%
Second compound 0.0949 µM, first compound 0.01 µM
  viability, T/C: 44%
Second compound 0.0949 µM, first compound 0.0316 µM
  viability, T/C: 46.5%
Second compound 0.0949 µM, first compound 0.1 µM
  viability, T/C: 44.4%
Second compound 0.0949 µM, first compound 0.316 µM
  viability, T/C: 44.8%
Second compound 0.0949 µM, first compound 1 µM
  viability, T/C: 38.7%
Second compound 0.3 µM, first compound 0.00316 µM
  viability, T/C: 32.1%
Second compound 0.3 µM, first compound 0.01 µM
  viability, T/C: 28%
Second compound 0.3 µM, first compound 0.0316 µM
  viability, T/C: 26.7%
Second compound 0.3 µM, first compound 0.1 µM
  viability, T/C: 26.6%
Second compound 0.3 µM, first compound 0.316 µM
  viability, T/C: 33%
Second compound 0.3 µM, first compound 1 µM
  viability, T/C: 24.5%
Second compound 0.949 µM, first compound 0.00316 µM
  viability, T/C: 16.4%
Second compound 0.949 µM, first compound 0.01 µM
  viability, T/C: 19.6%
Second compound 0.949 µM, first compound 0.0316 µM
  viability, T/C: 14.8%
Second compound 0.949 µM, first compound 0.1 µM
  viability, T/C: 15.3%
Second compound 0.949 µM, first compound 0.316 µM
  viability, T/C: 13.4%
Second compound 0.949 µM, first compound 1 µM
  viability, T/C: 13.3%
Second compound 3 µM, first compound 0.00316 µM
  viability, T/C: 14.3%
Second compound 3 µM, first compound 0.01 µM
  viability, T/C: 14.3%
Second compound 3 µM, first compound 0.0316 µM
  viability, T/C: 9.2%
Second compound 3 µM, first compound 0.1 µM
  viability, T/C: 12.3%
Second compound 3 µM, first compound 0.316 µM
  viability, T/C: 14.2%
Second compound 3 µM, first compound 1 µM
  viability, T/C: 11%

## O=C(c1ccc(F)c(F)c1Nc1ccc(I)cc1F)N1CC(O)([C@@H]2CCCCN2)C1
Compound 0.00316 µM
  viability, T/C: 104% and 101% and 102%
Compound 0.01 µM
  viability, T/C: 92.1% and 89.8% and 79.8%
Compound 0.0316 µM
  viability, T/C: 100% and 92.2% and 90.3%
Compound 0.1 µM
  viability, T/C: 99% and 111% and 102%
Compound 0.316 µM
  viability, T/C: 91.3% and 97.2% and 97.5%
Compound 1 µM
  viability, T/C: 86.5% and 89.6% and 87.4%
Curve of compound
  IC50: > 1 µM

## C=C(F)C(=O)N1CCN(c2nc(OCC3CCCN3C)nc3c2CCN(c2cccc4cccc(Cl)c24)C3)CC1CC#N (stereo unspecified) + Cc1c(S(C)(=O)=O)c(-c2cc(F)cc(N3CCN(c4ccc(NS(=O)(=O)c5ccc(NC(CCN6CCC(C(=O)OCCCP(=O)(O)O)CC6)CSc6ccccc6)c(S(=O)(=O)C(F)(F)F)c5)cc4)CC3)c2)c(-c2ccc(Cl)cc2)n1C(C)C
Curve of first compound, second compound 0.0316 µM
  IC50: 3.44 µM
Curve of first compound, second compound 0.1 µM
  IC50: 4.54 µM
Curve of first compound, second compound 0.316 µM
  IC50: 3 µM
Curve of first compound, second compound 1 µM
  IC50: 3.92 µM
Curve of first compound, second compound 3.16 µM
  IC50: 3.29 µM
Curve of first compound, second compound 10 µM
  IC50: 4.23 µM
Second compound 0.0316 µM, first compound 0.0316 µM
  viability, T/C: 105%
Second compound 0.0316 µM, first compound 0.1 µM
  viability, T/C: 108%
Second compound 0.0316 µM, first compound 0.316 µM
  viability, T/C: 87.6%
Second compound 0.0316 µM, first compound 1 µM
  viability, T/C: 75.2%
Second compound 0.0316 µM, first compound 3.16 µM
  viability, T/C: 60.7%
Second compound 0.0316 µM, first compound 10 µM
  viability, T/C: 0.25%
Second compound 0.1 µM, first compound 0.0316 µM
  viability, T/C: 107%
Second compound 0.1 µM, first compound 0.1 µM
  viability, T/C: 90.5%
Second compound 0.1 µM, first compound 0.316 µM
  viability, T/C: 97.3%
Second compound 0.1 µM, first compound 1 µM
  viability, T/C: 95.8%
Second compound 0.1 µM, first compound 3.16 µM
  viability, T/C: 72.7%
Second compound 0.1 µM, first compound 10 µM
  viability, T/C: 0.14%
Second compound 0.316 µM, first compound 0.0316 µM
  viability, T/C: 103%
Second compound 0.316 µM, first compound 0.1 µM
  viability, T/C: 88.8%
Second compound 0.316 µM, first compound 0.316 µM
  viability, T/C: 86.8%
Second compound 0.316 µM, first compound 1 µM
  viability, T/C: 87%
Second compound 0.316 µM, first compound 3.16 µM
  viability, T/C: 48%
Second compound 0.316 µM, first compound 10 µM
  viability, T/C: 0.13%
Second compound 1 µM, first compound 0.0316 µM
  viability, T/C: 96.3%
Second compound 1 µM, first compound 0.1 µM
  viability, T/C: 82.6%
Second compound 1 µM, first compound 0.316 µM
  viability, T/C: 87.1%
Second compound 1 µM, first compound 1 µM
  viability, T/C: 81.5%
Second compound 1 µM, first compound 3.16 µM
  viability, T/C: 61.8%
Second compound 1 µM, first compound 10 µM
  viability, T/C: 0.17%
Second compound 3.16 µM, first compound 0.0316 µM
  viability, T/C: 97.9%
Second compound 3.16 µM, first compound 0.1 µM
  viability, T/C: 86%
Second compound 3.16 µM, first compound 0.316 µM
  viability, T/C: 84.2%
Second compound 3.16 µM, first compound 1 µM
  viability, T/C: 81.7%
Second compound 3.16 µM, first compound 3.16 µM
  viability, T/C: 50.8%
Second compound 3.16 µM, first compound 10 µM
  viability, T/C: 0.17%
Second compound 10 µM, first compound 0.0316 µM
  viability, T/C: 200%
Second compound 10 µM, first compound 0.1 µM
  viability, T/C: 167%
Second compound 10 µM, first compound 0.316 µM
  viability, T/C: 231%
Second compound 10 µM, first compound 1 µM
  viability, T/C: 223%
Second compound 10 µM, first compound 3.16 µM
  viability, T/C: 66.7%
Second compound 10 µM, first compound 10 µM
  viability, T/C: 0.3%
